# Tested on: myDDosome
# Settings: BMDM pretreated with CPDP; MyD88 IP, IRAK4 blot
# Method: Four million BMDMs per well were plated in 6-well plates and treated with CPDP for 30 minutes prior to stimulation with ODN 1668 for 90 minutes. Cells were lysed in 600 p L of buffer containing 20 mM HEPES (pH 7.4), 150 mM NaCl, 10 mM NaF, 2 mM Na3VO4, 1 mM EDTA, 1 mM EGTA, 0.5% Triton X-100, 0.1 mM DTT, and protease inhibitor cocktail (Roche™). Cell extracts were incubated overnight with 1 μg of anti-mouse MyD88 antibody (AF3109) (R&D Systems™, followed by a 4-hour incubation with 20 μL protein G Sepharose beads (ThermoFisherm Scientific). The beads were then washed 3 times with 500 μL of lysis buffer and boiled in 60 μL of Laemmli sample buffer (Bio-Rad™). Cell extracts were electrophoresed on 10% acrylamide gel by SDS-PAGE and transferred to PVDF membrane (Bio-Rad™). Rabbit anti-MyD88 IgG was purchased from Cell Signaling™. Mouse anti-IRAK4 IgG was obtained from Abcam™. Alkaline phosphatase-conjugated secondary antibodies against mouse and rabbit IgG were purchased from Cell Signaling™. The stabilized substrate for alkaline phosphatase was from Promega™.
# TLR stimulation causes formation of myDDosome, a signaling complex composed through interactions of IRAK and MyD88 death domains. To test if peptides inhibit myDDosome formation, MyD88 was immunoprecipitated from lysates of ODN-stimulated BMDM and the precipitates analyzed for IRAK4 presence. BMDM were lysed and lysates immunoprecipitated with anti-MyD88 Ab and immune complexes assessed with anti-IRAK4 Ab 3 hours after cell treatment with ODN 1668.
sequence,measurement,value
RSFWAQLGMALTRD (Synthetic peptide 9R11),ODN 1668-induced myDDosome formation,prevented ODN 1668-induced myDDosome formation
